Paper PMC9897768, “Discovery of new 6-ureido/amidocoumarins as highly potent and selective inhibitors for the tumour-relevant carbonic anhydrases IX and XII” (Journal of Enzyme Inhibition and Medicinal Chemistry, 2023)

Experiments:
hCA XII = hCA XII (Homo sapiens, UniProt O43570); assay: stopped-flow CO2 hydrase assay, hCA XII; type: biochemical; conditions: incubation time 6 h, mean of three experiments
Procedure: (§1) The target coumarins 5a–p and 7a–c were examined for their CA inhibitory actions towards the ubiquitous CA I and II (cytosolic) as well as the tumour-associated CA IX and XII isozymes by the use of a stopped-flow CO2 hydrase assay, using acetazolamide (AZA) as a reference compound.
(§2) The experimental procedures utilised for CA inhibitory assay of the target compounds were carried out as described earlier, and presented in the Supplementary Materials.

hCA IX = hCA IX (Homo sapiens, UniProt Q16790); assay: stopped-flow CO2 hydrase assay, hCA IX; type: biochemical; conditions: incubation time 6 h, mean of three experiments
Procedure: as §1, §2

MCF-7 cells = assay: MTT antiproliferative assay, MCF-7; type: cell-based, human; conditions: mean ± SEM of three experiments; for inhibition at 10 µM / inhibition at 100 µM: Homo sapiens; for inhibition at 10 µM: MCF7, MCF7, 10 µM, read-out: % Growth inhibition MCF7 10 µM; for inhibition at 100 µM: MCF7, MCF7, 100 µM, read-out: % Growth inhibition MCF7 100 µM
Procedure: (§3) Encouraged by the favourable selectivity profile of ureidocoumarins 5a–p and amidocoumarins 7a–c towards hCA IX and hCA XII, they were further examined for their prospective antiproliferative activity against human colorectal (HCT-116) and breast (MCF-7) cancer cell lines, adopting the MTT assay.
(§4) The evaluation of anticancer activity of the target compounds was conducted by MTT assay adopting the literature procedure.

hCA II = hCA II (Homo sapiens, UniProt P00918); assay: stopped-flow CO2 hydrase assay, hCA II; type: biochemical; conditions: incubation time 6 h, mean of three experiments
Procedure: as §1, §2

HCT-116 cells = assay: MTT antiproliferative assay, HCT-116; type: cell-based, human; conditions: mean ± SEM of three experiments; for inhibition at 10 µM / inhibition at 100 µM: Homo sapiens; for inhibition at 10 µM: HCT-116, HCT116, 10 µM, read-out: % Growth inhibition HCT116 10 µM; for inhibition at 100 µM: HCT-116, HCT116, 100 µM, read-out: % Growth inhibition HCT116 100 µM
Procedure: as §3, §4

hCA I = hCA I (Homo sapiens, UniProt P00915); assay: stopped-flow CO2 hydrase assay, hCA I; type: biochemical; conditions: incubation time 6 h, mean of three experiments
Sequence of hCA I (P00915 whole entry): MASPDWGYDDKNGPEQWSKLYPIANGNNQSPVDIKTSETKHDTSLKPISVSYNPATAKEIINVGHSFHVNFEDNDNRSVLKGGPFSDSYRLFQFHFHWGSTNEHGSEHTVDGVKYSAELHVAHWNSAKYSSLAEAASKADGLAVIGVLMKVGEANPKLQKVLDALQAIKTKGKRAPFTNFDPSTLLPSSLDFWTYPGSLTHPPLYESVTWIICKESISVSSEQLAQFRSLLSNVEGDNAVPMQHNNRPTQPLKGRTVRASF
Procedure: as §1, §2

Sequence of hCA XII (O43570 25-354): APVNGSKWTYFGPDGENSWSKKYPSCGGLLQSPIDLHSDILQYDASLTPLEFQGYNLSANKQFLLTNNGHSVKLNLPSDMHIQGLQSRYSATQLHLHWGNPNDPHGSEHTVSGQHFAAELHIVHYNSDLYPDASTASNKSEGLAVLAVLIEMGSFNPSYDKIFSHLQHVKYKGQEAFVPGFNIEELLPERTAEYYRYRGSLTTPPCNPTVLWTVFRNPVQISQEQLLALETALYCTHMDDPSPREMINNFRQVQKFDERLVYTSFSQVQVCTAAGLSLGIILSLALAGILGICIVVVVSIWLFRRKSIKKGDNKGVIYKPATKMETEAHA

SMILES	Ki (hCA XII) [nM]	Ki (hCA IX) [nM]	inhibition at 10 µM (MCF-7 cells) [%]	inhibition at 100 µM (MCF-7 cells) [%]	Ki (hCA II) [nM]	melting point [°C]	inhibition at 10 µM (HCT-116 cells) [%]	inhibition at 100 µM (HCT-116 cells) [%]	Ki (hCA I) [nM]	% Growth inhibition MCF7 10 µM (MCF-7 cells; MCF7, 10 µM) [%]	% Growth inhibition MCF7 100 µM (MCF-7 cells; MCF7, 100 µM) [%]	% Growth inhibition HCT116 10 µM (HCT-116 cells; HCT116, 10 µM) [%]	% Growth inhibition HCT116 100 µM (HCT-116 cells; HCT116, 100 µM) [%]
O=C(Nc1cccc(C(F)(F)F)c1)Nc1ccc2oc(=O)ccc2c1 [Compound 5a, 1-(2-Oxo-2H-chromen-6-yl)-3-(3-(trifluoromethyl)phenyl)urea]	26.2	45.9	3.7 ± 1.9	34.7 ± 4.4	> 100000	252 to 254	8 ± 4.8	21.9 ± 4.6	> 100000				
O=C(Nc1ccc(C(F)(F)F)cc1)Nc1ccc2oc(=O)ccc2c1 [Compound 5b]	38.5	71.4	4.2 ± 1.4	77.8 ± 5.1	> 100000	276 to 278	7.6 ± 2.8	77 ± 4	> 100000				
O=C(Nc1ccc(F)cc1)Nc1ccc2oc(=O)ccc2c1 [Compound 5c, 1-(4-Fluorophenyl)-3-(2-oxo-2H-chromen-6-yl)urea]	40.2	41.5	9.5 ± 4.2	13.5 ± 4.3	> 100000	249 to 250	10.9 ± 1.6	31.3 ± 4.6	> 100000				
O=C(Nc1ccc(Br)cc1)Nc1ccc2oc(=O)ccc2c1 [Compound 5d, 1-(4-Bromophenyl)-3-(2-oxo-2H-chromen-6-yl)urea]	51.1	70.6	18.2 ± 3.2	18.5 ± 4.5	> 100000	257 to 258	25.4 ± 2.7	31.7 ± 3.5	> 100000				
CCCCc1ccc(NC(=O)Nc2ccc3oc(=O)ccc3c2)cc1 [Compound 5e, 1-(4-Butylphenyl)-3-(2-oxo-2H-chromen-6-yl)urea]	95.1	54.7	38.2 ± 2.5	46.4 ± 4.9	> 100000	223 to 224	20.1 ± 2.5	65 ± 6	> 100000				
CCCCOc1ccc(NC(=O)Nc2ccc3oc(=O)ccc3c2)cc1 [Compound 5f, 1-(4-Butoxyphenyl)-3-(2-oxo-2H-chromen-6-yl)urea]	81.8	32.5	32.3 ± 2.6	46.9 ± 3.4	> 100000	234 to 235	15 ± 5.2	67.7 ± 0.6	> 100000				
O=C(Nc1ccc(Cl)c(C(F)(F)F)c1)Nc1ccc2oc(=O)ccc2c1 [Compound 5g, 1-(4-Chloro-3-(trifluoromethyl)phenyl)-3-(2-oxo-2H-chromen-6-yl)urea]	29.4	66.4	10 ± 2.4	92.3 ± 0.6	> 100000	253 to 255	15.2 ± 4.4	90.5 ± 1.4	> 100000				
O=C(Nc1ccc(F)c(Cl)c1)Nc1ccc2oc(=O)ccc2c1 [Compound 5h, 1-(3-Chloro-4-fluorophenyl)-3-(2-oxo-2H-chromen-6-yl)urea]	10.3	24.1	16.9 ± 5.3	91.2 ± 1	> 100000	232 to 233	11.9 ± 1.5	92.3 ± 1.2	> 100000				
O=C(Nc1cc(C(F)(F)F)cc(C(F)(F)F)c1)Nc1ccc2oc(=O)ccc2c1 [Compound 5i, 1-(3,5-Bis(trifluoromethyl)phenyl)-3-(2-oxo-2H-chromen-6-yl)urea]	5.9	14.7	> 50	> 90	> 100000			> 90	> 100000	51.5 ± 3.1	93.9 ± 0.4	70.4 ± 2.6	94.2 ± 1.1
O=C(Nc1cc(Cl)cc(Cl)c1)Nc1ccc2oc(=O)ccc2c1 [Compound 5j, 1-(3,5-Dichlorophenyl)-3-(2-oxo-2H-chromen-6-yl)urea]	23.4	19.9	6.1 ± 2	91.1 ± 0.6	> 100000	252 to 253	19.2 ± 3.8	91.9 ± 1.1	> 100000				
Cc1cc(C)cc(NC(=O)Nc2ccc3oc(=O)ccc3c2)c1 [Compound 5k, 1-(3,5-Dimethylphenyl)-3-(2-oxo-2H-chromen-6-yl)urea]	27.4	42.9	33.2 ± 3.2	66.7 ± 5	> 100000	238 to 239	14.5 ± 2.7	87.4 ± 1.8	> 100000				
O=C(Nc1ccc2oc(=O)ccc2c1)Nc1ccc(Cl)cc1Cl [Compound 5l, 1-(2,4-Dichlorophenyl)-3-(2-oxo-2H-chromen-6-yl)urea]	56.7	50.6	5.9 ± 2.7	6.6 ± 2.5	> 100000	291 to 292	2.6 ± 1.8	6.7 ± 1.7	> 100000				
O=C(Nc1ccc2oc(=O)ccc2c1)Nc1ccc(F)cc1F [Compound 5m, 1-(2,4-Difluorophenyl)-3-(2-oxo-2H-chromen-6-yl)urea]	7.2	25.6	15.2 ± 1.4	22.7 ± 3.3	> 100000		25.7 ± 2.3	26.1 ± 4	> 100000				
Cc1cc(Cl)ccc1NC(=O)Nc1ccc2oc(=O)ccc2c1 [Compound 5n, 1-(4-Chloro-2-methylphenyl)-3-(2-oxo-2H-chromen-6-yl)urea]	43.1	28.4	16.7 ± 4.9	19.9 ± 1.2	> 100000		4.9 ± 2.5	20.5 ± 3.5	> 100000				
Cc1cccc(Cl)c1NC(=O)Nc1ccc2oc(=O)ccc2c1 [Compound 5o, 1-(2-Chloro-6-methylphenyl)-3-(2-oxo-2H-chromen-6-yl)urea]	13.8	19.2	30.3 ± 1.5	72.8 ± 5.5	> 100000		9.7 ± 4	78.6 ± 3.7	> 100000				
O=C(Nc1ccc2oc(=O)ccc2c1)Nc1c(Br)cc(F)cc1Br [Compound 5p, 1-(2,6-Dibromo-4-fluorophenyl)-3-(2-oxo-2H-chromen-6-yl)urea]	50.4	72.8	21.4 ± 3	79.5 ± 2.4	> 100000		14.1 ± 3	75.2 ± 5.8	> 100000				
O=C(Nc1ccc2oc(=O)ccc2c1)c1ccc(Cl)c(C(F)(F)F)c1 [Compound 7a, 4-Chloro-N-(2-oxo-2H-chromen-6-yl)-3-(trifluoromethyl)benzamide]	42.8	82.4	9.9 ± 3.4	19 ± 2.1	> 100000	272 to 273	14 ± 2.4	42.2 ± 2.5	> 100000				
O=C(Nc1ccc2oc(=O)ccc2c1)c1cc(C(F)(F)F)cc(C(F)(F)F)c1 [Compound 7b, N-(2-Oxo-2H-chromen-6-yl)-3,5-bis(trifluoromethyl)benzamide]	37.5	55.6	11.3 ± 4	62.9 ± 6.4	> 100000	240 to 241	19.6 ± 2.4	76 ± 2.5	> 100000				
O=C(Nc1ccc2oc(=O)ccc2c1)c1cc(F)cc(F)c1 [Compound 7c, 3,5-Difluoro-N-(2-oxo-2H-chromen-6-yl)benzamide]	40.5	61	21.1 ± 3.3	21.4 ± 4.7	> 100000	301 to 303	21.8 ± 3	52 ± 5.1	> 100000				
